Experimental data from patent EP4215522A1, “DERIVATIVES OF 4-CHROMONE AS INHIBITORS OF THE RDRP POLYMERASE OF SARS-COV-2 VIRUS AND METHOD FOR THE PREPARATION THEREOF” (priority 2022, dated 2023).
Like-named read-outs stand apart in the source and are kept apart here.

Tests used:
[1] = Kinetic solubility; format: physicochemical
Procedure: (§1) The solubility and stability of some compounds of the invention and known compounds were evaluated.

[2] = target: RNA-dependent RNA polymerase (SARS-CoV-2) (Severe acute respiratory syndrome coronavirus 2, UniProt P0DTD1); experiment: in vitro enzymatic assay of RdRp activity (AlphaScreen detection); format: biochemical
[3] = Microsomal stability in mice; format: in vitro ADME; settings: mouse microsomes
Procedure: as §1

[4] = Plasma stability in mice; format: in vitro ADME; settings: mouse plasma
Procedure: as §1

[5] = RdRp reaction 37°C, 60 minutes, duplicate, 30 minutes preincubation, 1% DMSO
[6] = compound at 25 µM, read-out: % inhib. (25 µM)
[7] = compound at 100 µM, read-out: % inhib. (100 µM)

Question: With `Cc1c(-c2ccc(O)c(O)c2)oc2cc(O)cc(O)c2c1=O` [(5a), 2-(3,4-dihydroxyphenyl)-5,7-dihydroxy-3-methyl-4H-chromen-4-one] as the compound, how does the “Kinetic solubility Sk” value [1] read?
Answer: 32 µM

Question: What about the IC50 [2, 5] of the same compound?
Answer: 4.3 ± 1.1 µM

Question: And the inhibition at 25 µM [2, 6]?
Answer: 94%

Question: What about the inhibition at 100 µM [2, 7] of the same compound?
Answer: 99%

Question: What does the source list for `CCCc1c(-c2ccc(O)c(O)c2)oc2cc(O)cc(O)c2c1=O` [(5b), 2-(3,4-dihydroxyphenyl)-5,7-dihydroxy-3-propyl-4H-chromen-4-one]?
Answer: Kinetic solubility Sk [1]: 13 µM; IC50 [2, 5]: 8.8 ± 0.7 µM; inhibition at 25 µM [2, 6]: 72%; inhibition at 100 µM [2, 7]: 98%

Question: For `CCCCOc1c(-c2ccc(O)c(O)c2)oc2cc(O)cc(O)c2c1=O` [(9a), 3-butoxy-2-(3,4-dihydroxyphenyl)-5,7-dihydroxy-4H-chromen-4-one], which “Kinetic solubility Sk” value [1] is on record?
Answer: 156 µM

Question: What about the “Microsomal stability in mice t1/2” value [3] of the same compound?
Answer: >1 h

Question: What about the IC50 [2, 5] of the same compound?
Answer: 5.3 ± 1 µM

Question: And the inhibition at 25 µM [2, 6]?
Answer: 52%

Question: What about the inhibition at 100 µM [2, 7] of the same compound?
Answer: 98%

Question: What about the “Plasma stability in mice t1/2” value [4] of the same compound?
Answer: >2 h

Question: With `O=c1c(OCCO)c(-c2ccc(O)c(O)c2)oc2cc(O)cc(O)c12` [(9b), 2-(3,4-dihydroxyphenyl)-5,7-dihydroxy-3-(2-hydroxyethoxy)-4H-chromen-4-one] as the compound, how does the “Kinetic solubility Sk” value [1] read?
Answer: 167 µM

Question: And the “Microsomal stability in mice t1/2” value [3]?
Answer: >1 h

Question: And the IC50 [2, 5]?
Answer: 6.1 ± 1 µM

Question: And the inhibition at 25 µM [2, 6]?
Answer: 83%

Question: And the inhibition at 100 µM [2, 7]?
Answer: 100%

Question: And the “Plasma stability in mice t1/2” value [4]?
Answer: >2 h

Question: For `O=c1c(OCCCO)c(-c2ccc(O)c(O)c2)oc2cc(O)cc(O)c12` [(9c), 2-(3,4-dihydroxyphenyl)-5,7-dihydroxy-3-(3-hydroxypropoxy)-4H-chromen-4-one], which “Kinetic solubility Sk” value [1] is on record?
Answer: 231 µM

Question: What about the “Microsomal stability in mice t1/2” value [3] of the same compound?
Answer: 1 h

Question: And the IC50 [2, 5]?
Answer: 5.6 ± 0.1 µM

Question: What about the inhibition at 25 µM [2, 6] of the same compound?
Answer: 71%

Question: And the inhibition at 100 µM [2, 7]?
Answer: 95%

Question: And the “Plasma stability in mice t1/2” value [4]?
Answer: 1.5 h

Question: With `O=c1cc(Cc2ccc(O)c(O)c2)oc2cccc(O)c12` [(13a), 2-(3,4-dihydroxybenzyl)-5-hydroxy-4H-chromen-4-one] as the compound, how does the “Kinetic solubility Sk” value [1] read?
Answer: 63 µM

Question: And the “Microsomal stability in mice t1/2” value [3]?
Answer: >1 h

Question: What about the IC50 [2, 5] of the same compound?
Answer: 8.5 ± 0.7 µM

Question: And the inhibition at 25 µM [2, 6]?
Answer: 78%

Question: What about the inhibition at 100 µM [2, 7] of the same compound?
Answer: 99%

Question: What about the “Plasma stability in mice t1/2” value [4] of the same compound?
Answer: >2 h

Question: With `CC(c1ccc(O)c(O)c1)c1cc(=O)c2c(O)cccc2o1` (stereo not shown) [(13b), 2-(1-(3,4-dihydroxyphenyl)ethyl)-5-hydroxy-4H-chromen-4-one] as the compound, how does the “Kinetic solubility Sk” value [1] read?
Answer: 165 µM

Question: And the “Microsomal stability in mice t1/2” value [3]?
Answer: >1 h

Question: What about the IC50 [2, 5] of the same compound?
Answer: 4.1 ± 1.4 µM

Question: And the inhibition at 25 µM [2, 6]?
Answer: 65%

Question: And the inhibition at 100 µM [2, 7]?
Answer: 100%

Question: What about the “Plasma stability in mice t1/2” value [4] of the same compound?
Answer: >2 h

Question: For `CCCCC(c1ccc(O)c(O)c1)c1cc(=O)c2c(O)cccc2o1` (stereo not shown) [(13c), 2-(1-(3,4-dihydroxyphenyl)pentyl)-5-hydroxy-4H-chromen-4-one], which inhibition at 25 µM [2, 6] is on record?
Answer: 16%

Question: What about the inhibition at 100 µM [2, 7] of the same compound?
Answer: 37%

Question: Which “IC50 (µM)” value [2, 5] does the source give for `O=c1cc(C(CCCC(F)(F)F)c2ccc(O)c(O)c2)oc2cccc(O)c12` (stereo not shown) [(13d), 2-(1-(3,4-dihydroxyphenyl)-5,5,5-trifluoropentyl)-5-hydroxy-4H-chromen-4-one] here?
Answer: NO inhibition

Question: And the inhibition at 25 µM [2, 6]?
Answer: 8%

Question: What about the inhibition at 100 µM [2, 7] of the same compound?
Answer: 10%

Question: Which results are given for `O=c1cc(/C=C/c2ccc(O)c(O)c2)oc2cccc(O)c12` [(18), (E)-2-(3,4-dihydroxystyryl)-5-hydroxy-4H-chromen-4-one]?
Answer: Kinetic solubility Sk [1]: <1 µM; IC50 [2, 5]: 7 ± 1.2 µM; inhibition at 25 µM [2, 6]: 54%; inhibition at 100 µM [2, 7]: 94%

Question: Which results are given for `O=c1cc(CCc2ccc(O)c(O)c2)oc2cccc(O)c12` [(20), 2-(3,4-dihydroxyphenethyl)-5-hydroxy-4H-chromen-4-one]?
Answer: Kinetic solubility Sk [1]: 67 µM; Microsomal stability in mice t1/2 [3]: >1 h; IC50 [2, 5]: 5.8 ± 0.7 µM; inhibition at 25 µM [2, 6]: 80%; inhibition at 100 µM [2, 7]: 97%; Plasma stability in mice t1/2 [4]: >2 h

Question: Which results are given for `O=C(Nc1ccc(O)c(O)c1)c1cc(=O)c2c(O)cccc2o1` [(24a), N-(3,4-dihydroxyphenyl)-5-hydroxy-4-oxo-4H-chromen-2-carboxamide]?
Answer: Kinetic solubility Sk [1]: 65 µM; Microsomal stability in mice t1/2 [3]: 1 h; IC50 [2, 5]: 7.1 ± 0.8 µM; inhibition at 25 µM [2, 6]: 80%; inhibition at 100 µM [2, 7]: 100%; Plasma stability in mice t1/2 [4]: 1.38 ± 0.217 h

Question: With `O=C(Oc1ccc(O)c(O)c1)c1cc(=O)c2c(O)cccc2o1` [(24b), 3,4-dihydroxyphenyl-5-hydroxy-4-oxo-4H-chromen-2-carboxylate] as the compound, how does the “Kinetic solubility Sk” value [1] read?
Answer: <1 µM

Question: And the IC50 [2, 5]?
Answer: 2 ± 1 µM

Question: What about the inhibition at 25 µM [2, 6] of the same compound?
Answer: 95%

Question: And the inhibition at 100 µM [2, 7]?
Answer: 94%

Question: Which IC50 [2, 5] does the source give for `O=C(OCCc1ccc(O)c(O)c1)c1cc(=O)c2c(O)cccc2o1` [(24c), 3,4-dihydroxyphenethyl-5-hydroxy-4-oxo-4H-chromen-2-carboxylate] here?
Answer: 44.1 ± 1.1 µM

Question: And the inhibition at 25 µM [2, 6]?
Answer: 36%

Question: And the inhibition at 100 µM [2, 7]?
Answer: 72%

Question: What does the source list for `O=C(NCCNC(=O)c1cc(=O)c2c(O)cccc2o1)c1ccc(O)c(O)c1` [(28), N-(2-(3,4-dihydroxybenzamide)ethyl)-5-hydroxy-4-oxo-4H-chromen-2-carboxamide]?
Answer: IC50 [2, 5]: 15.9 ± 1.1 µM; inhibition at 25 µM [2, 6]: 79%; inhibition at 100 µM [2, 7]: 100%

Question: Which “Kinetic solubility Sk” value [1] does the source give for `O=C(NCCNC(=S)Nc1ccc(O)c(O)c1)c1cc(=O)c2c(O)cccc2o1` [(31), N-(2-(3-(3,4-dihydroxyphenyl)thiourea)ethyl)-5-hydroxy-4-oxo-4H-chromen-2-carboxamide] here?
Answer: <1 µM

Question: And the IC50 [2, 5]?
Answer: 3.4 ± 1.2 µM

Question: And the inhibition at 25 µM [2, 6]?
Answer: 86%

Question: And the inhibition at 100 µM [2, 7]?
Answer: 94%

Question: What does the source list for `O=c1cc(-c2ccc(O)c(O)c2)oc2cc(O)cc(O)c12` [luteolin, reference compound]?
Answer: Kinetic solubility Sk [1]: 21 µM; Microsomal stability in mice t1/2 [3]: >1 h; Plasma stability in mice t1/2 [4]: >2 h

Question: Which results are given for `O=c1c(O)c(-c2ccc(O)c(O)c2)oc2cc(O)cc(O)c12` [quercetin, reference compound]?
Answer: Kinetic solubility Sk [1]: 16 µM; Microsomal stability in mice t1/2 [3]: >1 h; Plasma stability in mice t1/2 [4]: 0.12 h

Question: With `O=c1cc(-c2ccc(O)c(O)c2)oc2cc(F)cc(O)c12` [reference compound] as the compound, how does the inhibition at 25 µM ([2]; read-out: % inhibition 25 µM) read?
Answer: 0%

Question: What about the inhibition at 100 µM ([2]; read-out: % inhibition 100 µM) of the same compound?
Answer: 25%

Question: With `O=c1cc(-c2ccc3c(c2)OC(F)(F)O3)oc2cc(O)cc(O)c12` [reference compound] as the compound, how does the inhibition at 25 µM ([2]; read-out: % inhibition 25 µM) read?
Answer: 0%

Question: What about the inhibition at 100 µM ([2]; read-out: % inhibition 100 µM) of the same compound?
Answer: 51%

Question: Which inhibition at 25 µM ([2]; read-out: % inhibition 25 µM) does the source give for `COc1cccc2oc(-c3ccc(O)cc3C)cc(=O)c12` [reference compound] here?
Answer: 3%

Question: What about the inhibition at 100 µM ([2]; read-out: % inhibition 100 µM) of the same compound?
Answer: 34%
